From patent publication US10451536B2, “Method and apparatus for multi-parameter data analysis” (GE HEALTHCARE UK LIMITED, priority 2009, dated 2019)

System: CHO-K1 cells
Experiment: High-content screening of nuclear morphology in CHO-K1 cells treated with Mitomycin C, with KS distance analysis
Format: cell-based
Procedure: CHO-K1 cells were seeded into a GE Healthcare 96 well MatriPlate at 6000 cells/well in Ham's F12 media supplemented with 5% EBS and incubated under standard tissue culture conditions for 24 hours. Mitomycin C (MMC) solutions were added in culture media to provide final concentrations in the assay of […] and cells incubated for a further 48 hours. Media was removed from wells and cells washed once with […] phosphate buffered saline (PBS), followed by fixation in ethanol for 30 minutes at room temperature. Nuclei were stained with […] HOECHST™ 33342 (Sigma) at room temperature for 15 minutes and cells washed with […] PBS.
Cells were imaged by a GE Healthcare INCELL ANALYZER 1000™ using v3.5 acquisition software (available from GE Healthcare) with a 20× objective. Images were acquired using on-line cell counting to acquire a minimum of 1000 cells/well. Images were analysed for nuclear area, length, perimeter and weighted moment of inertia (WMOI) using GE INCELL INVESTIGATOR™ software (available from GE Healthcare).
Four nuclear morphology parameters were abstracted from images using automated image analysis and data from replicate samples exposed to the same concentrations of MMC combined to yield population distribution histograms for each of the four parameters as shown in FIGS. 7 to 10. In each of FIGS. 7 to 10 the data in panel 1 is from control cells, and the data in panels 2-12 from MMC treated cells across the range of 0.01 μM-10 μM MMC.
KS distance analysis of the data using intra-sample measurements (i.e. calculation of the KS distance between cell data in the absence of MMC and cell data at a given concentration of MMC across the range 0.01 μM-10 μM) was performed and the resulting data shown in FIG. 11.
Inter-sample KS distances were calculated for all six possible parameter pairings (Area-Length; Area-WMOI; Length-WMOI; Area-Perimeter; Length-Perimeter; Perimeter-WMOI) by calculation of KS distance between data distributions for two parameters at the same MMC concentration. In order to perform KS distance measures on the different parameters of which had variant dimensions, parameter values were normalized (Pnorm) to a range from 0-1 using the function: […]

[1] = CHO-K1 cells, same MMC concentration, normalized parameters, FIG. 12

SMILES: CO[C@@]12[C@H](COC(N)=O)C3=C(C(=O)C(C)=C(N)C3=O)N1C[C@@H]1N[C@@H]12 [MMC, Mitomycin C]
- Nuclear size, shape and morphology in representative HCS images (CHO-K1 cells, 0, 0.16 and 2.5 μM MMC, 48 hours, HOECHST 33342 nuclear stain, FIG. 6): Changes in nuclear size, shape and morphology are clearly visible
- Intra-sample KS distance relative to untreated cells (nuclear area, length, perimeter, WMOI) (CHO-K1 cells, 0.01 μM-10 μM MMC, FIG. 11): clear dose-dependent increase in KS distances for all four measured parameters
- Micronuclei formation (higher magnification view) (CHO-K1 cells, 0.16 μM MMC, FIG. 6 image B inset): nuclei with associated micronuclei arising from clastogenic DNA damage
- Inter-sample KS distance Area and perimeter (A-W) [1]: low KS inter-sample distance at low and high MMC concentrations with an increase in KS distance at intermediate concentrations
- Inter-sample KS distance Area-Length (A-L) [1]: constant low KS distance across the entire MMC concentration range
- Inter-sample KS distance Length-WMOI (L-W) [1]: constant high KS distance over most of the MMC concentration range
- Inter-sample KS distance Perimeter-WMOI (P-W) [1]: decreases with MMC concentration
